Non-standard residues stand in square brackets, D forms with d. No end group written: not given here. pY = N[C@@H](Cc1ccc(OP(=O)(O)O)cc1)C(=O)O
Columns and labels:
exportin 7 = target: T1, exportin 7 (Homo sapiens, UniProt Q9UIA9); experiment: Immunoprecipitation of FAM-labeled peptide and Western blotting, exportin 7; format: binding; conditions: anti-FITC (FAM) immunoprecipitation, Western blotting, U251 cells
T1 construct: endogenous in cells; host or cells: U251
Method: Data are representative of 3 independent experiments (n = 3).
Whole cell lysates or tissue homogenates were prepared by using RIPA lysis buffer (50 mM Tris at pH 7.4, 150 mM NaCl, 1 mM EDTA, 0.5% NP-40, 1 mM NaF, 15% glycerol, and 20 mM β-glycerophosphate). A protease inhibitor cocktail (Mini Protease Inhibitor Cocktail; Roche) and a tyrosine phosphatase inhibitor, sodium orthovanadate (Na3VO4, 1 mM), were added freshly to the lysis buffer. Protein amounts were determined by BCA using a Thermo Fisher Scientific kit. Normalized protein amounts were subjected to an SDS-PAGE and transferred onto a nitrocellulose membrane for Western blotting. Proteins were visualized with a chemiluminescent detection kit (Pierce, Thermo Fisher Scientific). The protein levels for STAT1 (sc-346, E-23), STAT3 (sc-482, C-20), STAT5 (sc-74442, A-9), Crm1 (exportin 1) (sc-5595, H-300), CAS (exportin 2) (sc-271537, H-2), exportin 5 (sc-66885, H-300), and exportin 7 (sc-98639, H-82) were determined using antibodies from Santa Cruz Biotechnology Inc. Anti–exportin 3 (exportin T, 630622, LOS1 05-1525), anti–exportin 4 (3499-1), and anti–exportin 6 (11408-1-AP) were from MilliporeSigma, Epitomics, and Proteintech, respectively. […]

[1] = system: EGF-mediated ERK phosphorylation; experiment: EGF-mediated ERK phosphorylation, Western blotting; format: cell-based; conditions: preincubated 2 hours, 30 ng/mL EGF for 30 minutes
Method: Figure 8 PS-Gp130 and PS-MYC blocking peptides efficiently internalize into tumor cells to exert their functions. (A) For 1 hour 1 μM of PS-conjugated MYC (PS-MYC) and Gp130 (PS-Gp130) were incubated with cancer cells. PS-scramble MYC (PS-SC-MYC) was used as a control for PS-MYC. The peptide uptake was visualized by confocal microscopy and quantified by flow cytometry. Data are representative of 3 independent experiments (n = 3). (B) Upper panel: The binding of PS-Gp130 and STAT3 was examined by immunoprecipitation and Western blotting. PO-Gp130 was used as a control. For 4 hours prior to harvest, 1 μM of peptide was incubated with cells. Lower panel: PS-Gp130 inhibits IL-6–induced phosphorylation of STAT3 and p44/42 but not EGF-mediated signaling. The cells were preincubated with PS-Gp130 for 2 hours and then stimulated with 20 ng/mL of IL-6 or 30 ng/mL of EGF for 30 minutes before harvest and Western blotting. (C) Gene expression of STAT3 targets was examined by quantitative PCR after the treatment with 1 μM of PS-Gp130 with or without IL-6 stimulation as described above. Data shown are 3 independent experiments (n = 3); SD is shown. Unpaired Student’s t test; ***P < 0.005; **P < 0.01; *P < 0.05. (D) A total of 1 μM of PS-SC-MYC or PS-MYC was incubated with cells for 48 hours before the gene expression of MYC targets was examined by quantitative PCR. […]

T1 sequence (Q9UIA9 whole entry): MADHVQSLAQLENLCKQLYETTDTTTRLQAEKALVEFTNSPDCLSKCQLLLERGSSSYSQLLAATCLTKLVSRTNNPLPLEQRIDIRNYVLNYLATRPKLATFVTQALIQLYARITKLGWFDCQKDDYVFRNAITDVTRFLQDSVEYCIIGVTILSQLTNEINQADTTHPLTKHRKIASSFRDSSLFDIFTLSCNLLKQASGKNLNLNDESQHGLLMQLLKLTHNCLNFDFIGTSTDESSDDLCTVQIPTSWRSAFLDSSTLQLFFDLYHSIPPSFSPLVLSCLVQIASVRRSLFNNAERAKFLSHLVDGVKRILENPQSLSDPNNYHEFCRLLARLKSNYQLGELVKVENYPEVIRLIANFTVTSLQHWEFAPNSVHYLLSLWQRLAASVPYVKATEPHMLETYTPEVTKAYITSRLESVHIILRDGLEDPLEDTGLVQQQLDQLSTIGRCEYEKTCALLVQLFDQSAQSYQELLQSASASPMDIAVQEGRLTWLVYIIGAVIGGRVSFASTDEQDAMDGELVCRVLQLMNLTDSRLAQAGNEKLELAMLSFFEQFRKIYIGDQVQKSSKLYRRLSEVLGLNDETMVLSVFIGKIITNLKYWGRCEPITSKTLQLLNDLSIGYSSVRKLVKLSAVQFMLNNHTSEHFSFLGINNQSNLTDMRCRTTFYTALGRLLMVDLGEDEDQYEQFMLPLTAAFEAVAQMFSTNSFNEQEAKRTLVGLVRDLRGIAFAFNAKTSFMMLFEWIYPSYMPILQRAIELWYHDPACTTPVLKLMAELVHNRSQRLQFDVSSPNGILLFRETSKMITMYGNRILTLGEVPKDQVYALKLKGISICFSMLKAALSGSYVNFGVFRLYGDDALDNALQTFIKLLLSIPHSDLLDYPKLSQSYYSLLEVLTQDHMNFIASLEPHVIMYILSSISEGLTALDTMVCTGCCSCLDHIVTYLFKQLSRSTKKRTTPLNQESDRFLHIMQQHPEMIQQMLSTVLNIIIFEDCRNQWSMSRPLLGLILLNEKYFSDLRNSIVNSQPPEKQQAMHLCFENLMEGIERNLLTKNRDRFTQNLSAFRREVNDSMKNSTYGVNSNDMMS

Row | Substance | binding to exportin 7 (exportin 7) | EGF-mediated ERK phosphorylation [1]
1 | PDIPKEEAFGK685(Ac)YCRPESQEHPC-linker-T*C*C*A*T*G*A*G*C*T*T*C*C*T*G*A*T*G*C*T [PS-acet.-STAT3 peptide] | bound | –
2 | PS-Gp130: PS-conjugated Gp130 peptide (amino acids 901–910) with phospho-Tyr905 (MPKS[pY]LPQTV; also: phosphorothioate oligonucleotide conjugate; UniProt P40189 901-910, looked up, fragment) | – | not
